The target in test [1] is T1, Carbonic anhydrase 9 (Homo sapiens, UniProt Q16790). Kind of test: Inhibition of human recombinant carbonic anhydrase 9-mediated CO2 hydration after 6 hrs by stopped-flow assay.
Test [2] concerns the target Carbonic anhydrase 2 (Homo sapiens, UniProt P00918). Kind of test: Inhibition of human recombinant carbonic anhydrase 2-mediated CO2 hydration after 6 hrs by stopped-flow assay.
Test [3] addresses Carbonic anhydrase 1 (Homo sapiens, UniProt P00915). Kind of test: Inhibition of human recombinant carbonic anhydrase 1-mediated CO2 hydration after 6 hrs by stopped-flow assay.
In test [4] the target is T1, Carbonic anhydrase 9. Kind of test: Ratio of acetazolamide Ki to compound Ki for human recombinant carbonic anhydrase 9.

Chain of Carbonic anhydrase 1 (P00915 whole entry): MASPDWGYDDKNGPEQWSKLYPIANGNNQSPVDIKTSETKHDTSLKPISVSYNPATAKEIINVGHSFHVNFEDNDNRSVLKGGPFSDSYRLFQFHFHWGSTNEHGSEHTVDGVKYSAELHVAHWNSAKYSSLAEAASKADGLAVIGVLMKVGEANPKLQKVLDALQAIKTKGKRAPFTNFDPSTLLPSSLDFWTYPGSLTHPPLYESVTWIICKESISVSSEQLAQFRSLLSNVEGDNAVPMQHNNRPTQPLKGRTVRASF

As to `COc1ccc(-c2cnnn2-c2ccc3c(c2)C=CS(=O)(=O)O3)cc1`, the results for the Ki in test [1], in test [2] and in test [3] were 0.0083 µM, over 10 µM and over 10 µM, respectively.

`CC(C)(C)c1cn(-c2ccc3c(c2)C=CS(=O)(=O)O3)nn1`: the Ki (in general, a dissociation constant, usually derived from enzyme kinetics or from competition with a known ligand) in test [1] was 0.0105 µM; in test [2], over 10 µM; in test [3], over 10 µM.

On to `O=S1(=O)C=Cc2cc(-n3cc(-c4cccc(F)c4)nn3)ccc2O1`, for which the Ki in test [2] and in test [3] was over 10 µM throughout.

For `O=S1(=O)C=Cc2cc(-n3cc(C4CC4)nn3)ccc2O1`, the Ki in test [2] and in test [3] was over 10 µM in each case.

Take `O=S1(=O)C=Cc2cc(-n3cc(-c4ccc(C(F)(F)F)cc4)nn3)ccc2O1`: the Ki in test [1] was 0.136 µM; in test [2], over 10 µM; in test [3] it was over 10 µM.

For the compound `O=S1(=O)C=Cc2cc(-n3nncc3-c3ccc(F)cc3)ccc2O1`, the Ki in test [2] and in test [3] was over 10 µM in each case.

Regarding `O=S1(=O)C=Cc2cc(-n3nncc3-c3cccc(Cl)c3)ccc2O1`, the Ki in test [1] is 0.0088 µM; in test [2], over 10 µM; in test [3] it was over 10 µM.

Take `O=S1(=O)C=Cc2cc(-n3nncc3-c3ccccc3)ccc2O1`: the Ki in test [1] is 0.0671 µM; in test [2] it was over 10 µM; in test [3], over 10 µM.

Turning to `O=S1(=O)C=Cc2cc(-n3nncc3-c3ccc(Cl)cc3)ccc2O1`, the Ki in test [1] is 0.0092 µM; in test [2] it was over 10 µM; in test [3], over 10 µM.

On to `O=S1(=O)C=Cc2cc(-n3nncc3-c3ccc(OC(F)(F)F)cc3)ccc2O1`, for which the Ki was 0.102 µM in test [1], over 10 µM in test [2] and over 10 µM in test [3].

Regarding `O=S1(=O)C=Cc2cc(-n3nncc3-c3cccc(C(F)(F)F)c3)ccc2O1`, the inhibitory constant (Ki) in test [2] and in test [3] was over 10 µM throughout.

`O=S1(=O)C=Cc2cc(-n3nncc3-c3cccc(F)c3)ccc2O1`: the Ki in test [1] is 0.0074 µM; in test [2], over 10 µM; in test [3], over 10 µM.

For `Nc1ccccc1-c1cnnn1-c1ccc2c(c1)C=CS(=O)(=O)O2`, the results for the inhibition constant (Ki) in test [1], in test [2] and in test [3] were 0.0095 µM, over 10 µM and over 10 µM, respectively.

For the compound `CC(C)(O)c1cn(-c2ccc3c(c2)C=CS(=O)(=O)O3)nn1`, the figures for the Ki in test [1], in test [2] and in test [3] were 0.0627 µM, over 10 µM and over 10 µM, respectively.

Consider `O=S1(=O)C=Cc2cc(-n3cc(-c4cccc(Cl)c4)nn3)ccc2O1`, for which the results for the Ki in test [1], in test [2] and in test [3] were 0.0931 µM, over 10 µM and over 10 µM, respectively.

As for `O=S1(=O)C=Cc2cc(-n3cc(-c4ccc(F)cc4)nn3)ccc2O1`, the Ki in test [2] and in test [3] was over 10 µM each time.

Regarding `Nc1cccc(-c2cn(-c3ccc4c(c3)C=CS(=O)(=O)O4)nn2)c1`, the Ki in test [1] was 0.875 µM; in test [2] it was over 10 µM; in test [3], over 10 µM.

As for `O=S1(=O)C=Cc2cc(-n3cc(-c4ccc(Cl)cc4)nn3)ccc2O1`, the Ratio Ki in test [4] came out at 3. For the same compound, the Ki in test [2] and in test [3] was over 10 µM in each case.

On to `Nc1ccccc1-c1cn(-c2ccc3c(c2)C=CS(=O)(=O)O3)nn1`, for which the Ki was 0.0079 µM in test [1], over 10 µM in test [2] and over 10 µM in test [3].

With `O=S1(=O)C=Cc2cc(-n3nncc3-c3ccc(C(F)(F)F)cc3)ccc2O1`, the Ki in test [1] was 0.0072 µM; in test [2], over 10 µM; in test [3], over 10 µM.

In the case of `COc1cccc(-c2cnnn2-c2ccc3c(c2)C=CS(=O)(=O)O3)c1`, the Ki in test [1] was 0.0091 µM; in test [2], over 10 µM; in test [3], over 10 µM.

The values are drawn from ChEMBL document CHEMBL3124764, “6-Triazolyl-substituted sulfocoumarins are potent, selective inhibitors of the tumor-associated carbonic anhydrases IX and XII” (Bioorg Med Chem Lett, 2014).
